Assay results published in ChEMBL document CHEMBL1201862, “PubChem BioAssay data set” (2004).
The source made the active and inactive calls.

Experiments:
[1] = Luminescence Cell-Based Dose Confirmation HTS to Identify Activators of 5'UTR Stem-Loop Driven Alpha-Synuclein mRNA Translation in H4 Neuroglioblastoma Cells. [Related pubchem assays: 1829 (Project Summary), 1814 (Primary HTS)]; format: functional
H4 = assay: Luminescence Cell-Based Dose Response HTS to Identify Activators of 5'UTR Stem-Loop Driven Prion Protein mRNA Translation in H4 Neuroglioblastoma Cells. [Related pubchem assays: 1829 (Project Summary), 1814 (Primary HTS)]; format: functional; settings: Homo sapiens
[2] = microbe, parasite or virus in culture; format: functional; settings: Mycobacterium tuberculosis
[3] = HEK-293T viability loss after treatment – luminescence, T-cell screen hits, cytotoxicity control for TCR NF-kB inhibitor project, dose response (AID 489026); format: functional, cell-based;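 note: cells exposed to compound about 14 hours before the viability readout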
[4] = Luminescence Cell-Based Dose Response HTS to Identify Activators of Luciferase Translation or Activity in H4 […] Cells. [Related pubchem assays: 1829 (Project Summary), 1814 (Primary HTS)]; format: functional
[5] = Luminescence Cell-Based Dose Retest to Confirm Inhibitors of Cancer Stem Cells. [Related pubchem assays (depositor defined):AID2717, AID2721]; format: functional; settings: Homo sapiens
Coagulation factor XII = target: T1, Coagulation factor XII (Homo sapiens, UniProt P00748); format: functional;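 note: activated factor XIIa alpha cleaving a fluorogenic AMC peptide substrate; inhibitor potency from loss of enzyme activity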
T1 sequence (P00748 whole entry): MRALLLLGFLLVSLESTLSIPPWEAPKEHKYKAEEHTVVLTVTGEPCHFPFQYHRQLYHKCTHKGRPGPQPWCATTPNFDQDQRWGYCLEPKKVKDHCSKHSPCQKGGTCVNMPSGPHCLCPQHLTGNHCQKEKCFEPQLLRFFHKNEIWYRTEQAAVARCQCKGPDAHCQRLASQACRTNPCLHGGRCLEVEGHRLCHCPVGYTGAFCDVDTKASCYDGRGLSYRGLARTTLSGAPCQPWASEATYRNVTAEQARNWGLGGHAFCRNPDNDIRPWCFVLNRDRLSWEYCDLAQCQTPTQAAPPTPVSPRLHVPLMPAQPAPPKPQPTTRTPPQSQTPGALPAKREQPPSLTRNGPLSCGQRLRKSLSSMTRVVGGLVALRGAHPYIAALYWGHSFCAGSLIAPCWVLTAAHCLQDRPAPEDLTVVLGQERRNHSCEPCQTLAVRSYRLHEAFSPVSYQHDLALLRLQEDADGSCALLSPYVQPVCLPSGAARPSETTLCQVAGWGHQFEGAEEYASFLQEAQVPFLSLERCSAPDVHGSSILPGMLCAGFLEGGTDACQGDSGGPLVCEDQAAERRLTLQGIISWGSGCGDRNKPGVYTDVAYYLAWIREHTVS

Estrogen receptor = target: T2, Estrogen receptor (Homo sapiens, UniProt P03372);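 note: potency for inhibiting coactivator peptide recruitment to the receptor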
T2 sequence (P03372 whole entry): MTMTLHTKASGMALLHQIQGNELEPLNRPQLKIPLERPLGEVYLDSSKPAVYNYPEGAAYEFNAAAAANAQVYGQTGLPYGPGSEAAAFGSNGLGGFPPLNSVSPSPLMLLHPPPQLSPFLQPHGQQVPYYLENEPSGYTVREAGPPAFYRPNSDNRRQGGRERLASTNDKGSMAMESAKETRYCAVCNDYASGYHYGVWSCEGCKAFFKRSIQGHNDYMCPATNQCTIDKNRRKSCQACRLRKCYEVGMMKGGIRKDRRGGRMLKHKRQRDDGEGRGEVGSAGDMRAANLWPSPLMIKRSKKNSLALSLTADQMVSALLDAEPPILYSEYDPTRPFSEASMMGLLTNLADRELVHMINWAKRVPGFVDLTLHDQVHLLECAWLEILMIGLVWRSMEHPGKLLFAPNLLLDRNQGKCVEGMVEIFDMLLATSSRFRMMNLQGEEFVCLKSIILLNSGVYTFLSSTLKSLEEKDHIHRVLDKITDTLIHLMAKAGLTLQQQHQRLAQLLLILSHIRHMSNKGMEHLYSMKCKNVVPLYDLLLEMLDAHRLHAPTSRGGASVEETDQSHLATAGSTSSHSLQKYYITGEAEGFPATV

[6] = target: T3, Short transient receptor potential channel 4 (Mus musculus, UniProt Q9QUQ5); assay: calcium entry via TRPC4 opening agents – cell-based, HEK293 TRPC4/mu-opioid, Fluo-4 calcium, dose response (AID 434937); format: functional
T3 sequence (Q9QUQ5 whole entry): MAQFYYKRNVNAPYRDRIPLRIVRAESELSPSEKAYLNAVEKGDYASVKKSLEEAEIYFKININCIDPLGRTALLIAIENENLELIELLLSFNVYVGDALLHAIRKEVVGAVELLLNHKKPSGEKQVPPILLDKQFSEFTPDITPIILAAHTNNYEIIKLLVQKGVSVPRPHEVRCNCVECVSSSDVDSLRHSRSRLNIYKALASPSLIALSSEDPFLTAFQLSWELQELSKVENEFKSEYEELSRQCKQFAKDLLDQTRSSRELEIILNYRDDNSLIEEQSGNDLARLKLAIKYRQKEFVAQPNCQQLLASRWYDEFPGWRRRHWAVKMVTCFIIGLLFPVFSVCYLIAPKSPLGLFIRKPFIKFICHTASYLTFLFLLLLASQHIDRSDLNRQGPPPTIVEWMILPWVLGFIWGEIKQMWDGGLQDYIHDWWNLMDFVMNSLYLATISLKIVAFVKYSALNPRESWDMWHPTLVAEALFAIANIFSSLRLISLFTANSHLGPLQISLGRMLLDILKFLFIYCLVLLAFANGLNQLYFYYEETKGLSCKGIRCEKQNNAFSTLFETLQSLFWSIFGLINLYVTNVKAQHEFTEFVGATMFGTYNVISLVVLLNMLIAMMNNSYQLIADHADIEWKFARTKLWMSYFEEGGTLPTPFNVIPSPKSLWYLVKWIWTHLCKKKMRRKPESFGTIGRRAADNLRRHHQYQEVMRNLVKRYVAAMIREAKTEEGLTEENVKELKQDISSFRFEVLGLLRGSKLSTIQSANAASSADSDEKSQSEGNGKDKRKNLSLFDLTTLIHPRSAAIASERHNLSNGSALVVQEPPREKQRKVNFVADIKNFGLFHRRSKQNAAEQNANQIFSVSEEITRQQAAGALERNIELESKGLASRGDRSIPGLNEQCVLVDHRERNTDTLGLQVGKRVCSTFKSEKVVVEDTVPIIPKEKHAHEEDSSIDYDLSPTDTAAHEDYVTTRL

[7] = target: T4, Ubiquitin-conjugating enzyme E2 N (Homo sapiens, UniProt P61088); format: functional;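 note: Dose-response confirmation in a TR-FRET assay detecting UBC13-driven polyubiquitin chain formation, inhibition measured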
T4 sequence (P61088 whole entry): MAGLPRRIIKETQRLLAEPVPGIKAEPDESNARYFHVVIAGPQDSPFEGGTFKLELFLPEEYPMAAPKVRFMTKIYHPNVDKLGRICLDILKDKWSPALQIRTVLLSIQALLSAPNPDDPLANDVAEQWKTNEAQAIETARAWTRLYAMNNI

[8] = A Cell Based Secondary Assay To Explore Cytotoxicity of Compounds that Sensitize Mycobacterium Tuberculosis to Beta-Lactam Antibiotics.; format: functional
INS1 = assay: INS-1E survival protection against cytokine death – cell-based, luminescence, retest, dose response (AID 449756); format: functional; settings: Rattus norvegicus;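 note: cell death triggered by IL-1 beta plus TNF-alpha plus IFN-gamma mixture; protective hits raise ATP signal compared with cytokine alone wells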
Estrogen receptor beta = Estrogen receptor beta (Homo sapiens, UniProt Q92731);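 note: recombinant ER-beta bound to coactivator SRC1 peptide in presence of estradiol agonist; inhibitors block coactivator peptide binding and lower the FRET signal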
Sequence of Estrogen receptor beta (Q92731 whole entry): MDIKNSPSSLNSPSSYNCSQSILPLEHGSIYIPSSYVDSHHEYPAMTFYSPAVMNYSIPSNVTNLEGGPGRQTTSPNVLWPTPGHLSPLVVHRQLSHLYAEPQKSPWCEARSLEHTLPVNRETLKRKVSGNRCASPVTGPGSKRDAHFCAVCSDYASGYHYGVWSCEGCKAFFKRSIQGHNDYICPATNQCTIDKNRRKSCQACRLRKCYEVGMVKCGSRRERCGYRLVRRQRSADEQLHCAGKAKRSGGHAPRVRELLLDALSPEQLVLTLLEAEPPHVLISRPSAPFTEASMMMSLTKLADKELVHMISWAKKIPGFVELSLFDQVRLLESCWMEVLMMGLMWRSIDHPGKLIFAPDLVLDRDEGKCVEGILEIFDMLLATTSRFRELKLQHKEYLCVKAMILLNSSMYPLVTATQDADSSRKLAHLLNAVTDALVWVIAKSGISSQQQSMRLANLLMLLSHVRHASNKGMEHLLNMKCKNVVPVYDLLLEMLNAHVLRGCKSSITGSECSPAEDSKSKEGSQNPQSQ

For `O=C(c1ccccc1)c1nn(-c2ccc(Cl)cc2)c(=O)cc1C(F)(F)F`, which EC50 [1] is on record?
The EC50 was 0.222 µM (active).

What about the EC50 (H4) of the same compound?
Its EC50 is > 120 µM (not active).

What about the CC50 [2] of the same compound?
Its CC50 is 15.7 µM (active).

What about the IC50 [3] of the same compound?
Its IC50 is > 80 µM (inactive).

What about the EC50 [4] of the same compound?
Its EC50 is > 120 µM (not active).

And the AC50 [5]?
The AC50 was 4.21 µM (active).

With `COC(=O)C(C)NC(=O)C1CCCN1S(=O)(=O)c1cc(C)c(Cl)cc1C` (stereo not given) as the compound, how does the IC50 (Coagulation factor XII) read?
Its IC50 is > 50 µM (inactive).

With `CN(C)CC(=O)N1c2ccccc2CCc2ccc(NC(=O)c3ccc(N)cc3)cc21` as the compound, how does the IC50 (Estrogen receptor) read?
Its IC50 is 15.6 µM (active).

For `Fc1ccc(-n2cc(CNCCc3cccnc3)c(-c3ccccc3Cl)n2)cc1`, which EC50 [6] is on record?
Its EC50 is 5.96 µM (active).

With `Cc1ccc(C)c(NC(=O)CN(C)C(=O)CCN2C(=O)c3ccccc3C2=O)c1` as the compound, how does the IC50 (Coagulation factor XII) read?
Its IC50 is > 50 µM (inactive).

For `Cc1cc(C)cc(OCC(=O)NNC(=O)c2ccccn2)c1`, which IC50 [7] is on record?
Its IC50 is > 20 µM (inactive).

What about the CC50 [8] of the same compound?
Its CC50 is 11.4 µM (active).

For `Brc1c(C[n+]2ccccc2)nc2ccccn12`, which IC50 (Coagulation factor XII) is on record?
Its IC50 is > 50 µM (inactive).

For `CCc1nnc(NC(=O)C2Cc3ccccc3CN2S(=O)(=O)c2cccs2)s1` (stereo not given), which IC50 (Estrogen receptor) is on record?
The IC50 was > 50 µM (not active).

For `CCOc1ccc(S(=O)(=O)N(C(=O)c2ccco2)c2cc3sc(=O)oc3c3ccccc23)cc1`, which AC50 (INS1) is on record?
The AC50 was 4.42 µM (active).

What about the CC50 [8] of the same compound?
The CC50 was 31.6 µM (active).

Which IC50 (Estrogen receptor beta) does the source give for `N#CCCS(=O)(=O)c1nnnn1-c1ccccc1` here?
The IC50 was > 50 µM (not active).

What about the IC50 (Estrogen receptor) of the same compound?
The IC50 was > 50 µM (not active).

With `Cc1cc(C)cc(OCc2nc3cc(Br)c[nH]c-3n2)c1` as the compound, how does the IC50 (Estrogen receptor) read?
The IC50 was > 50 µM (not active).

For `O=C(C1=C[C@H](c2ccc(Br)cc2)C[C@H](OCc2ccc(CO)cc2)O1)N1CCN(Cc2ccc3c(c2)OCO3)CC1`, which CC50 [8] is on record?
Its CC50 is 32 µM (active).
